Where two headings read alike, the source gives them in different places.

The nature of series [1]: Solubility of salts and drugs in water / ethanol. The class given is physicochemical. An excerpt: Spray drying homogenous particles requires that the ingredients of interest be solubilized in solution or suspended in a uniform and stable suspension. Most of the materials mentioned in the material section are sufficiently water-soluble to prepare suitable spray drying solutions. […] As a result of these low solubilities, formulation feedstock development work was necessary to prepare solutions or suspensions that could be spray dried.
For the spray drying process, the salts, excipients and other drugs were dissolved or suspended in a solvent (e.g., water). The solid concentrations (w/v) were chosen dependent on the solubility of the different components (see Table 2). The ratios used for formulations were based on the molecular weight of the anhydrous salts (see Table 3).

The test system of series [2] is mice sensitized and challenged with ovalbumin (OVA). The note with it: literature (Riesenfeld 2010); cited from earlier work.

Take `CCC(=O)O[C@]1(C(=O)SCF)[C@H](C)C[C@H]2[C@@H]3C[C@H](F)C4=CC(=O)C=C[C@]4(C)[C@@]3(F)[C@@H](O)C[C@@]21C` [Fluticasone propionate, fluticasone propionate]: in series [1], the solubility in ethanol entry was “slightly soluble” and the solubility in water entry is on record as “practically insoluble”. For the same molecule, the “eosinophilic cells and total cellularity in the mouse OVA model” value in series [2] was “reduce eosinophilic cells and total cellularity”.
For `CCCC1O[C@@H]2C[C@H]3[C@@H]4CCC5=CC(=O)C=C[C@]5(C)[C@H]4[C@@H](O)C[C@]3(C)[C@]2(C(=O)CO)O1` (stereo partly shown) [Budesonide, budesonide], in series [1], the solubility in ethanol entry is “slightly soluble” and the solubility in water entry was “practically insoluble”.
For `OCc1cc(C(O)CNCCCCCCOCCCCc2ccccc2)ccc1O` (stereo not shown) [salmeterol xinafoate], in series [1] (in words), the solubility in ethanol result is “slightly soluble” and the solubility in water result is “practically insoluble”.

The record behind these values is patent publication US10376465B2, “Monovalent metal cation dry powders for inhalation” (priority 2010, dated 2019).
